{"source": "the supplement of paper PMC10307832", "experiment_in_all_cases": "relative viability (nuclei count vs DMSO), 5 days (fraction); higher = more cells survive", "key": {"NCI-H1650": {"system": "NCI-H1650", "how_it_was_run": "(§1)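 Nuclei were stained with Hoechst during a one-step fixation (final 0.05% Triton X-100, 1% formaldehyde, 1 ug/ml Hoechst) carried out 5 days after dosing, then counted on 4× images. The cells, lung cancer lines in 1536-well plates, had been dosed by pin tool the day after seeding with one drug alone or a fixed anchor-drug dose plus five library-drug doses (not always all listed) in √10 steps. Relative viability is the nuclei count in treated wells divided by that in vehicle wells, and each value is the median of duplicate plates.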"}, "LCLC-97TM1": {"system": "LCLC-97TM1", "how_it_was_run": "as §1"}, "NCI-H647": {"system": "NCI-H647", "how_it_was_run": "as §1"}, "NCI-H2405": {"system": "NCI-H2405", "how_it_was_run": "as §1"}, "NCI-H3122": {"system": "NCI-H3122", "how_it_was_run": "as §1"}, "HCC-827": {"system": "HCC-827", "how_it_was_run": "as §1"}, "RERF-LC-KJ": {"system": "RERF-LC-KJ", "how_it_was_run": "as §1"}, "201T": {"system": "201T", "how_it_was_run": "as §1"}, "SK-LU-1": {"system": "SK-LU-1", "how_it_was_run": "as §1"}, "NCI-H2228": {"system": "NCI-H2228", "how_it_was_run": "as §1"}, "NCI-H1355": {"system": "NCI-H1355", "how_it_was_run": "as §1"}, "BEN": {"system": "BEN", "how_it_was_run": "as §1"}, "HCC-44": {"system": "HCC-44", "how_it_was_run": "as §1"}, "NCI-H1793": {"system": "NCI-H1793", "how_it_was_run": "as §1"}, "NCI-H1437": {"system": "NCI-H1437", "how_it_was_run": "as §1"}, "NCI-H322M": {"system": "NCI-H322M", "how_it_was_run": "as §1"}, "CAL-12T": {"system": "CAL-12T", "how_it_was_run": "as §1"}, "NCI-H2087": {"system": "NCI-H2087", "how_it_was_run": "as §1"}, "LXF-289": {"system": "LXF-289", "how_it_was_run": "as §1"}, "NCI-H2023": {"system": "NCI-H2023", "how_it_was_run": "as §1"}, "NCI-H727": {"system": "NCI-H727", "how_it_was_run": "as §1"}, "LCLC-103H": {"system": "LCLC-103H", "how_it_was_run": "as §1"}, "NCI-H1395": {"system": "NCI-H1395", "how_it_was_run": "as §1"}, "HOP-62": {"system": "HOP-62", "how_it_was_run": "as §1"}}}
{"compound": "C[C@@H]1CN(CC(=O)Nc2ccc3c(c2)Cc2cccc(-c4cc(=O)cc(N5CCOCC5)o4)c2S3)C[C@H](C)O1", "note": "+ O=C(CCCCCCC(=O)Nc1ccccc1)NO [Vorinostat] (partner 1 µM)", "values": [{"measurement": "relative viability", "setting": "NCI-H1650; first compound 0.04 µM", "result": 0.604}, {"measurement": "relative viability", "setting": "NCI-H1650; first compound 0.1265 µM", "result": 0.488}, {"measurement": "relative viability", "setting": "NCI-H1650; first compound 0.4 µM", "result": 0.588}, {"measurement": "relative viability", "setting": "NCI-H1650; first compound 4 µM", "result": 0.517}, {"measurement": "relative viability", "setting": "LCLC-97TM1; first compound 0.1265 µM", "result": 0.547}, {"measurement": "relative viability", "setting": "LCLC-97TM1; first compound 0.4 µM", "result": 0.685}, {"measurement": "relative viability", "setting": "LCLC-97TM1; first compound 4 µM", "result": 0.552}, {"measurement": "relative viability", "setting": "NCI-H647; first compound 0.04 µM", "result": 0.547}, {"measurement": "relative viability", "setting": "NCI-H647; first compound 0.1265 µM", "result": 0.491}, {"measurement": "relative viability", "setting": "NCI-H647; first compound 0.4 µM", "result": 0.665}, {"measurement": "relative viability", "setting": "NCI-H647; first compound 4 µM", "result": 0.416}, {"measurement": "relative viability", "setting": "NCI-H2405; first compound 0.04 µM", "result": 1.06}, {"measurement": "relative viability", "setting": "NCI-H2405; first compound 0.1265 µM", "result": 1.12}, {"measurement": "relative viability", "setting": "NCI-H2405; first compound 0.4 µM", "result": 0.94}, {"measurement": "relative viability", "setting": "NCI-H2405; first compound 4 µM", "result": 1.01}, {"measurement": "relative viability", "setting": "NCI-H3122; first compound 0.04 µM", "result": 1.01}, {"measurement": "relative viability", "setting": "NCI-H3122; first compound 0.1265 µM", "result": 0.84}, {"measurement": "relative viability", "setting": "NCI-H3122; first compound 0.4 µM", "result": 1}, {"measurement": "relative viability", "setting": "NCI-H3122; first compound 4 µM", "result": 1.29}, {"measurement": "relative viability", "setting": "HCC-827; first compound 0.04 µM", "result": 0.801}, {"measurement": "relative viability", "setting": "HCC-827; first compound 0.1265 µM", "result": 0.862}, {"measurement": "relative viability", "setting": "HCC-827; first compound 0.4 µM", "result": 0.727}, {"measurement": "relative viability", "setting": "HCC-827; first compound 4 µM", "result": 0.757}, {"measurement": "relative viability", "setting": "RERF-LC-KJ; first compound 0.04 µM", "result": 0.648}, {"measurement": "relative viability", "setting": "RERF-LC-KJ; first compound 0.1265 µM", "result": 0.655}, {"measurement": "relative viability", "setting": "RERF-LC-KJ; first compound 0.4 µM", "result": 0.738}, {"measurement": "relative viability", "setting": "RERF-LC-KJ; first compound 4 µM", "result": 0.543}, {"measurement": "relative viability", "setting": "201T; first compound 0.04 µM", "result": 0.926}, {"measurement": "relative viability", "setting": "201T; first compound 0.1265 µM", "result": 0.942}, {"measurement": "relative viability", "setting": "201T; first compound 0.4 µM", "result": 1.01}, {"measurement": "relative viability", "setting": "201T; first compound 4 µM", "result": 0.81}, {"measurement": "relative viability", "setting": "SK-LU-1; first compound 0.04 µM", "result": 0.765}, {"measurement": "relative viability", "setting": "SK-LU-1; first compound 0.1265 µM", "result": 0.831}, {"measurement": "relative viability", "setting": "SK-LU-1; first compound 0.4 µM", "result": 0.811}, {"measurement": "relative viability", "setting": "SK-LU-1; first compound 4 µM", "result": 0.568}, {"measurement": "relative viability", "setting": "NCI-H2228; first compound 0.04 µM", "result": 0.667}, {"measurement": "relative viability", "setting": "NCI-H2228; first compound 0.1265 µM", "result": 0.589}, {"measurement": "relative viability", "setting": "NCI-H2228; first compound 0.4 µM", "result": 0.852}, {"measurement": "relative viability", "setting": "NCI-H2228; first compound 4 µM", "result": 0.569}, {"measurement": "relative viability", "setting": "NCI-H1355; first compound 0.04 µM", "result": 0.552}, {"measurement": "relative viability", "setting": "NCI-H1355; first compound 0.1265 µM", "result": 0.713}, {"measurement": "relative viability", "setting": "NCI-H1355; first compound 0.4 µM", "result": 0.566}, {"measurement": "relative viability", "setting": "NCI-H1355; first compound 4 µM", "result": 0.621}, {"measurement": "relative viability", "setting": "BEN; first compound 0.04 µM", "result": 0.56}, {"measurement": "relative viability", "setting": "BEN; first compound 0.1265 µM", "result": 0.55}, {"measurement": "relative viability", "setting": "BEN; first compound 0.4 µM", "result": 0.602}, {"measurement": "relative viability", "setting": "BEN; first compound 4 µM", "result": 0.625}, {"measurement": "relative viability", "setting": "HCC-44; first compound 0.04 µM", "result": 1.12}, {"measurement": "relative viability", "setting": "HCC-44; first compound 0.1265 µM", "result": 1.01}, {"measurement": "relative viability", "setting": "HCC-44; first compound 0.4 µM", "result": 1.08}, {"measurement": "relative viability", "setting": "HCC-44; first compound 4 µM", "result": 0.966}, {"measurement": "relative viability", "setting": "NCI-H1793; first compound 0.04 µM", "result": 0.847}, {"measurement": "relative viability", "setting": "NCI-H1793; first compound 0.1265 µM", "result": 0.745}, {"measurement": "relative viability", "setting": "NCI-H1793; first compound 0.4 µM", "result": 0.762}, {"measurement": "relative viability", "setting": "NCI-H1793; first compound 4 µM", "result": 0.574}, {"measurement": "relative viability", "setting": "NCI-H1437; first compound 0.04 µM", "result": 0.837}, {"measurement": "relative viability", "setting": "NCI-H1437; first compound 0.1265 µM", "result": 0.768}, {"measurement": "relative viability", "setting": "NCI-H1437; first compound 0.4 µM", "result": 0.819}, {"measurement": "relative viability", "setting": "NCI-H1437; first compound 4 µM", "result": 0.609}, {"measurement": "relative viability", "setting": "NCI-H322M; first compound 0.04 µM", "result": 0.883}, {"measurement": "relative viability", "setting": "NCI-H322M; first compound 0.1265 µM", "result": 0.847}, {"measurement": "relative viability", "setting": "NCI-H322M; first compound 0.4 µM", "result": 0.902}, {"measurement": "relative viability", "setting": "NCI-H322M; first compound 4 µM", "result": 0.776}, {"measurement": "relative viability", "setting": "CAL-12T; first compound 0.04 µM", "result": 0.719}, {"measurement": "relative viability", "setting": "CAL-12T; first compound 0.1265 µM", "result": 0.623}, {"measurement": "relative viability", "setting": "CAL-12T; first compound 0.4 µM", "result": 0.739}, {"measurement": "relative viability", "setting": "CAL-12T; first compound 4 µM", "result": 0.377}, {"measurement": "relative viability", "setting": "NCI-H2087; first compound 0.04 µM", "result": 0.85}, {"measurement": "relative viability", "setting": "NCI-H2087; first compound 0.1265 µM", "result": 0.587}, {"measurement": "relative viability", "setting": "NCI-H2087; first compound 0.4 µM", "result": 0.663}, {"measurement": "relative viability", "setting": "NCI-H2087; first compound 4 µM", "result": 0.62}, {"measurement": "relative viability", "setting": "LXF-289; first compound 0.04 µM", "result": 0.534}, {"measurement": "relative viability", "setting": "LXF-289; first compound 0.1265 µM", "result": 0.794}, {"measurement": "relative viability", "setting": "LXF-289; first compound 0.4 µM", "result": 0.88}, {"measurement": "relative viability", "setting": "LXF-289; first compound 4 µM", "result": 0.733}, {"measurement": "relative viability", "setting": "NCI-H2023; first compound 0.04 µM", "result": 0.578}, {"measurement": "relative viability", "setting": "NCI-H2023; first compound 0.1265 µM", "result": 0.59}, {"measurement": "relative viability", "setting": "NCI-H2023; first compound 0.4 µM", "result": 0.581}, {"measurement": "relative viability", "setting": "NCI-H2023; first compound 4 µM", "result": 0.505}, {"measurement": "relative viability", "setting": "NCI-H727; first compound 0.04 µM", "result": 1.03}, {"measurement": "relative viability", "setting": "NCI-H727; first compound 0.1265 µM", "result": 1.17}, {"measurement": "relative viability", "setting": "NCI-H727; first compound 0.4 µM", "result": 1.15}, {"measurement": "relative viability", "setting": "NCI-H727; first compound 4 µM", "result": 1.13}, {"measurement": "relative viability", "setting": "LCLC-103H; first compound 0.04 µM", "result": 0.743}, {"measurement": "relative viability", "setting": "LCLC-103H; first compound 0.1265 µM", "result": 0.674}, {"measurement": "relative viability", "setting": "LCLC-103H; first compound 0.4 µM", "result": 0.804}, {"measurement": "relative viability", "setting": "LCLC-103H; first compound 4 µM", "result": 0.706}, {"measurement": "relative viability", "setting": "NCI-H1395; first compound 0.1265 µM", "result": 0.631}, {"measurement": "relative viability", "setting": "NCI-H1395; first compound 0.4 µM", "result": 0.597}, {"measurement": "relative viability", "setting": "NCI-H1395; first compound 4 µM", "result": 0.812}, {"measurement": "relative viability", "setting": "HOP-62; first compound 0.04 µM", "result": 0.477}, {"measurement": "relative viability", "setting": "HOP-62; first compound 0.1265 µM", "result": 0.648}, {"measurement": "relative viability", "setting": "HOP-62; first compound 0.4 µM", "result": 0.687}, {"measurement": "relative viability", "setting": "HOP-62; first compound 4 µM", "result": 0.509}]}
